In patent US9480695B2, “Methods for inducing orexin neurons and agent for treating narcolepsy or eating disorder” (THE UNIVERSITY OF TOKYO, priority 2011, dated 2016):

What was measured:
Assay type in all cases: cell-based
[1] = system: human iPS cell strain 201B7; experiment: Hcrt expression with ManNAc plus Sirt inhibitor and Ogt inhibitor, neural differentiation from human iPS cell, RT-PCR; details: ManNAc 1.0 mM from 0th day, EX-527 50 nM and/or BADGP 5 mM on 14th day, collected 20th day; FIG. 10
Experimental: A human iPS cell strain 201B7 (HSP0001) was obtained from Riken BioResource Center via National BioResource Project (MEXT, Japan). The human iPS cell was maintained on a feeder layer of a mitomycin C-treated STO/Neo resistant/LIF (SNL) feeder cell in a primate ES medium (ReproCELL) complemented with 5 ng/mL recombinant human bFGF (Wako). The human iPS cell was co-cultured with PA6 for 20 days, for differentiation induction into a nerve with a SIDA and BMP4 system. From 7th day, 5 nM BMP4 was complemented. A detailed protocol of differentiation induction into a nerve cell is shown in the lower column of FIG. 11. From the initiation of differentiation culturing (0th day), ManNAc was added to a neural differentiation medium so that the concentration became 1.0 mM, and on 7th, 10th and 14th days of differentiation culturing, the medium was exchanged. In addition, from 7th day of differentiation culturing, 5 nM recombinant human BMP4 (Wako) was added. On 14th day of differentiation culturing, EX-527 (SIGMA-ALDRICH) was added to a neural differentiation medium so that the concentration became 50 nM, or BADGP (SIGMA-ALDRICH) was added to a neural differentiation medium so that the concentration became 5 mM, and on 20th day of differentiation culturing, cells were collected and subjected to RT-PCR. The conditions of RT-PCR are the same as those of Example 1.

[2] = system: human iPS cell strain 201B7; experiment: Orexin-positive cells in neurally differentiated colony induced from human iPS cell, immunostaining; details: differentiation as in Example 5; anti-human orexin antibody fluorescence
Experimental: Cells which had been differentiation-induced on a 4-well culture plate by the method described in Example 5 were fixed with a 4% paraformalin solution, and cellular membrane permeability treatment was performed with a 0.2% Triton-X100 solution. The cells were treated with a 5% bovine serum albumin solution, followed by treatment with a primary antibody (anti-human orexin antibody, anti-human tubulin III antibody) at 4° C. overnight. After a reaction with a secondary labeled antibody (Alex-Fluor 488-labeled donkey anti-goat antibody, Alexa-Fluor 594-labeled rabbit anti-mouse antibody), a nuclear DNA was stained with DAPI.

[3] = system: human-derived pluripotent stem cell; experiment: Hcrt expression in human-derived pluripotent stem cell (similar effect to Experiment 1); details: stated as similar to Experiment 1

CC(=O)N[C@@H]1C(O)O[C@H](CO)[C@@H](O)[C@@H]1O (stereo partly drawn) [ManNAc, N-acetyl-D-mannosamine]
Expression of an orexin gene (Hcrt) [1]: recognized in a ManNAc-added section and an EX-527-added section to the same extent
ratio of orexin-positive cells in a neurally differentiated colony [2]: 4.9%
Expression of Hcrt in a human-derived pluripotent stem cell [3]: a similar effect was obtained
